Reference: PMC5218480 (PLoS ONE, 2017)

Test system: MV-4-11 cells
Test: Gene expression microarray analysis (Affymetrix PrimeView) and GSEA
Format: cell-based, human
Design: RFU PODN (11730768_x_at) / Fold change /veh PODN (11730768_x_at) / RFU LINC00158 (11744669_a_at) / Fold change /veh LINC00158 (11744669_a_at) / RFU DUSP10 (11751237_a_at) / Fold change /veh DUSP10 (11751237_a_at) / RFU ID3 (11757404_x_at) / Fold change /veh ID3 (11757404_x_at) / RFU PLEKHG5 (11737974_s_at) / Fold change /veh PLEKHG5 (11737974_s_at) / RFU LRRC4B (11730491_at) / Fold change /veh LRRC4B (11730491_at) / RFU GIMAP4 (11747438_a_at) / Fold change /veh GIMAP4 (11747438_a_at) / RFU KRT8 (11758183_x_at) / Fold change /veh KRT8 (11758183_x_at) / RFU CNN1 (11734310_a_at) / Fold change /veh CNN1 (11734310_a_at) / RFU VPS37D (11726825_at) / Fold change /veh VPS37D (11726825_at) / RFU C10orf10 (11716522_x_at) / Fold change /veh C10orf10 (11716522_x_at) / RFU KIR2DL2 /// KIR2DL4 /// KIR2DL5A /// KIR2DL5B /// KIR2DS1 /// KIR2DS2 /// KIR2DS3 /// KIR2DS4 /// KIR3DL3 /// KIR3DL3 /// KIR3DS1 (11738374_at) / Fold change /veh KIR2DL2 /// KIR2DL4 /// KIR2DL5A /// KIR2DL5B /// KIR2DS1 /// KIR2DS2 /// KIR2DS3 /// KIR2DS4 /// KIR3DL3 /// KIR3DL3 /// KIR3DS1 (11738374_at) / RFU C1QL1 (11718748_at) / Fold change /veh C1QL1 (11718748_at) / RFU TMPRSS4 (11747572_a_at) / Fold change /veh TMPRSS4 (11747572_a_at) / RFU HAMP (11756126_x_at) / Fold change /veh HAMP (11756126_x_at) / RFU RNFT2 (11725882_a_at) / Fold change /veh RNFT2 (11725882_a_at) / RFU NR4A2 (11747474_a_at) / Fold change /veh NR4A2 (11747474_a_at) / RFU ABCC12 (11746883_a_at) / Fold change /veh ABCC12 (11746883_a_at) / RFU TMEM136 (11760407_x_at) / Fold change /veh TMEM136 (11760407_x_at) / RFU CLDN22 /// WWC2 (11732394_at) / Fold change /veh CLDN22 /// WWC2 (11732394_at) / RFU HLA-DPB1 (11760878_x_at) / Fold change /veh HLA-DPB1 (11760878_x_at) / RFU SPINT1 (11716480_a_at) / Fold change /veh SPINT1 (11716480_a_at) / RFU GAP43 (11754022_s_at) / Fold change /veh GAP43 (11754022_s_at) / RFU A4GNT (11735810_at) / Fold change /veh A4GNT (11735810_at) / RFU PRB3 (11715151_x_at) / Fold change /veh PRB3 (11715151_x_at) / RFU TUBB4B (11761932_at) / Fold change /veh TUBB4B (11761932_at) / RFU CAPN14 (11732068_a_at) / Fold change /veh CAPN14 (11732068_a_at) / RFU TMCC2 (11721928_a_at) / Fold change /veh TMCC2 (11721928_a_at) / RFU IRGQ (11745062_a_at) / Fold change /veh IRGQ (11745062_a_at) / RFU FAM174B (11720279_a_at) / Fold change /veh FAM174B (11720279_a_at) / RFU TMPRSS4 (11748680_a_at) / Fold change /veh TMPRSS4 (11748680_a_at) / RFU FAM212B (11763350_a_at) / Fold change /veh FAM212B (11763350_a_at) / RFU PLEKHG5 (11743358_a_at) / Fold change /veh PLEKHG5 (11743358_a_at) / RFU ZSCAN30 (11745921_a_at) / Fold change /veh ZSCAN30 (11745921_a_at) / RFU CMKLR1 (11741424_a_at) / Fold change /veh CMKLR1 (11741424_a_at) / RFU LOC101060620 /// MAPK8IP1 (11723275_at) / Fold change /veh LOC101060620 /// MAPK8IP1 (11723275_at) / RFU SPTSSB (11747773_x_at) / Fold change /veh SPTSSB (11747773_x_at) / RFU PRSS12 (11739890_at) / Fold change /veh PRSS12 (11739890_at) / RFU BIN1 (11741810_x_at) / Fold change /veh BIN1 (11741810_x_at) / RFU WNT11 (11732464_a_at) / Fold change /veh WNT11 (11732464_a_at) / RFU C10orf10 (11716521_a_at) / Fold change /veh C10orf10 (11716521_a_at) / RFU C5orf56 (11738089_at) / Fold change /veh C5orf56 (11738089_at) / RFU CYB561 (11721691_x_at) / Fold change /veh CYB561 (11721691_x_at) / RFU ANKRD19P (11752326_a_at) / Fold change /veh ANKRD19P (11752326_a_at) / RFU OR2T12 /// OR2T33 /// OR2T8 (11738714_s_at) / Fold change /veh OR2T12 /// OR2T33 /// OR2T8 (11738714_s_at) / RFU VCAN (11748164_a_at) / Fold change /veh VCAN (11748164_a_at) / RFU JSRP1 (11732532_at) / Fold change /veh JSRP1 (11732532_at) / RFU KRTAP10-11 (11738290_x_at) / Fold change /veh KRTAP10-11 (11738290_x_at) / RFU MYO3A (11730013_a_at) / Fold change /veh MYO3A (11730013_a_at) / RFU EBF3 (11725865_a_at) / Fold change /veh EBF3 (11725865_a_at) / RFU CAMK2N1 (11719241_x_at) / Fold change /veh CAMK2N1 (11719241_x_at) / RFU C5orf56 (11738088_a_at) / Fold change /veh C5orf56 (11738088_a_at) / RFU OLFML3 (11715873_a_at) / Fold change /veh OLFML3 (11715873_a_at) / RFU LOC100653217 /// NTM (11731650_a_at) / Fold change /veh LOC100653217 /// NTM (11731650_a_at) / RFU MAPK11 (11762145_a_at) / Fold change /veh MAPK11 (11762145_a_at) / RFU FIZ1 (11724087_x_at) / Fold change /veh FIZ1 (11724087_x_at) / RFU OASL (11726364_x_at) / Fold change /veh OASL (11726364_x_at) / RFU SOX15 (11748057_x_at) / Fold change /veh SOX15 (11748057_x_at) / RFU CD79A (11719716_a_at) / Fold change /veh CD79A (11719716_a_at) / RFU HIST1H1D (11736915_at) / Fold change /veh HIST1H1D (11736915_at) / RFU CASKIN2 (11723855_a_at) / Fold change /veh CASKIN2 (11723855_a_at) / RFU LOC730098 (11760151_x_at) / Fold change /veh LOC730098 (11760151_x_at) / RFU OR4N2 (11742367_at) / Fold change /veh OR4N2 (11742367_at) / RFU PRRT2 (11749266_a_at) / Fold change /veh PRRT2 (11749266_a_at) / RFU SNX32 (11753110_a_at) / Fold change /veh SNX32 (11753110_a_at) / RFU CDHR5 (11726645_a_at) / Fold change /veh CDHR5 (11726645_a_at) / RFU RCAN1 (11760418_a_at) / Fold change /veh RCAN1 (11760418_a_at) / RFU FAM167A (11723789_a_at) / Fold change /veh FAM167A (11723789_a_at) / RFU FAM26E (11764081_at) / Fold change /veh FAM26E (11764081_at) / RFU ISYNA1 (11749810_s_at) / Fold change /veh ISYNA1 (11749810_s_at) / RFU ACY1 (11761880_at) / Fold change /veh ACY1 (11761880_at) / RFU 11764098_at / Fold change /veh 11764098_at / RFU SAMD14 (11745864_x_at) / Fold change /veh SAMD14 (11745864_x_at) / RFU NPB (11741838_a_at) / Fold change /veh NPB (11741838_a_at) / RFU TMPRSS6 (11731388_a_at) / Fold change /veh TMPRSS6 (11731388_a_at) / RFU KRTAP10-2 (11738614_at) / Fold change /veh KRTAP10-2 (11738614_at) / RFU ARHGAP8 /// PRR5-ARHGAP8 (11727945_x_at) / Fold change /veh ARHGAP8 /// PRR5-ARHGAP8 (11727945_x_at) / RFU KRTAP5-7 /// NADSYN1 (11734609_at) / Fold change /veh KRTAP5-7 /// NADSYN1 (11734609_at) / RFU RASL12 (11751679_a_at) / Fold change /veh RASL12 (11751679_a_at) / RFU CDKN2B (11736163_a_at) / Fold change /veh CDKN2B (11736163_a_at) / RFU PRF1 (11729649_at) / Fold change /veh PRF1 (11729649_at) / RFU, ZNF638 /// ZNF638-IT1 / Fold change vs veh, ZNF638 /// ZNF638-IT1 / RFU, PANK3 / Fold change vs veh, PANK3 / RFU, SH3YL1 / Fold change vs veh, SH3YL1 / RFU, ZEB2 / Fold change vs veh, ZEB2 / RFU, NRIP1 / Fold change vs veh, NRIP1 / RFU, PTTG1IP / Fold change vs veh, PTTG1IP / RFU, CAPN2 / Fold change vs veh, CAPN2 / RFU, MED14 / Fold change vs veh, MED14 / RFU, SNORA58 / Fold change vs veh, SNORA58 / RFU, C1orf63 / Fold change vs veh, C1orf63 / RFU, LRRFIP1 / Fold change vs veh, LRRFIP1 / RFU, NDUFAF7 / Fold change vs veh, NDUFAF7 / RFU, SLC12A2 / Fold change vs veh, SLC12A2 / RFU, IBTK / Fold change vs veh, IBTK / RFU, ESF1 / Fold change vs veh, ESF1 / Fold change vs veh, TMEM50B / RFU, TAOK1 / Fold change vs veh, TAOK1 / RFU, ACBD3 / Fold change vs veh, ACBD3 / RFU, TMA16 / Fold change vs veh, TMA16 / RFU, RWDD3 / Fold change vs veh, RWDD3 / RFU, BCAT1 / Fold change vs veh, BCAT1 / RFU, EDEM3 / Fold change vs veh, EDEM3 / RFU, TMEM33 / Fold change vs veh, TMEM33 / RFU, WDR75 / Fold change vs veh, WDR75 / RFU, AHCTF1 / Fold change vs veh, AHCTF1 / RFU, TFRC / Fold change vs veh, TFRC / RFU, ZDHHC17 / Fold change vs veh, ZDHHC17 / RFU, NOM1 / Fold change vs veh, NOM1 / RFU, ARL8B / Fold change vs veh, ARL8B / RFU, ZBTB11 / Fold change vs veh, ZBTB11 / RFU, TAMM41 / Fold change vs veh, TAMM41 / RFU, KIAA1704 /// LOC100996395 / Fold change vs veh, KIAA1704 /// LOC100996395 / RFU, ING1 / Fold change vs veh, ING1 / RFU, TRMT61B / Fold change vs veh, TRMT61B / RFU, FUBP3 / Fold change vs veh, FUBP3 / RFU, TP53 / Fold change vs veh, TP53 / RFU, TNKS2 / Fold change vs veh, TNKS2 / RFU, ZFP14 / Fold change vs veh, ZFP14 / RFU, ACTR2 / Fold change vs veh, ACTR2 / RFU, PPP3R1 / Fold change vs veh, PPP3R1 / RFU, PIK3R1 / Fold change vs veh, PIK3R1 / RFU, HNRNPA1 / Fold change vs veh, HNRNPA1 / RFU, RNF170 / Fold change vs veh, RNF170 / RFU, ZNF28 / Fold change vs veh, ZNF28 / RFU, RNGTT / Fold change vs veh, RNGTT / RFU, OGT / Fold change vs veh, OGT / RFU, BRD1 / Fold change vs veh, BRD1 / RFU, MARS / Fold change vs veh, MARS / RFU, ZNF655 / Fold change vs veh, ZNF655 / RFU, FAHD1 / Fold change vs veh, FAHD1 / RFU, BDP1 / Fold change vs veh, BDP1 / RFU, LRRCC1 / Fold change vs veh, LRRCC1 / RFU, ARID1A / Fold change vs veh, ARID1A / RFU, ZNF146 / Fold change vs veh, ZNF146 / RFU, ZNF330 / Fold change vs veh, ZNF330 / RFU, GPN3 / Fold change vs veh, GPN3 / RFU, C9orf123 / Fold change vs veh, C9orf123 / RFU, N4BP2L2 / Fold change vs veh, N4BP2L2 / RFU, ARFIP1 / Fold change vs veh, ARFIP1 / RFU, FAM179B / Fold change vs veh, FAM179B / RFU, BCL10 / Fold change vs veh, BCL10 / RFU, UHRF1BP1L / Fold change vs veh, UHRF1BP1L / RFU, BET1 / Fold change vs veh, BET1 / RFU, CNOT2 / Fold change vs veh, CNOT2 / RFU, ZNF268 / Fold change vs veh, ZNF268 / Fold change vs veh, ZNF507 / RFU, DGCR2 / Fold change vs veh, DGCR2 / RFU, WDSUB1 / Fold change vs veh, WDSUB1 / Fold change vs veh, HSP90B1 /// MIR3652 / RFU, ADSS / Fold change vs veh, ADSS / RFU, GK / Fold change vs veh, GK / RFU, ZNF148 / Fold change vs veh, ZNF148 / RFU, TAF9 / Fold change vs veh, TAF9 / RFU, SLC1A5 / Fold change vs veh, SLC1A5 / RFU, SLMO2 / Fold change vs veh, SLMO2 / RFU, ABCC4 / Fold change vs veh, ABCC4 / RFU, LOC101060439 /// RAP1B / Fold change vs veh, LOC101060439 /// RAP1B / RFU, RFX7 / Fold change vs veh, RFX7 / RFU, GTPBP10 / Fold change vs veh, GTPBP10 / RFU, CNEP1R1 / Fold change vs veh, CNEP1R1 / RFU, BIVM-ERCC5 /// ERCC5 / Fold change vs veh, BIVM-ERCC5 /// ERCC5 / RFU, ILF3 / Fold change vs veh, ILF3 / RFU 11762660_at / Fold change /veh 11762660_at / RFU VCAN (11757783_s_at) / Fold change /veh VCAN (11757783_s_at) / RFU DDX43 (11728927_at) / Fold change /veh DDX43 (11728927_at) / RFU KRT8 (11758188_x_at) / Fold change /veh KRT8 (11758188_x_at) / RFU NKD1 (11759106_at) / Fold change /veh NKD1 (11759106_at) / RFU SRD5A1 (11742802_a_at) / Fold change /veh SRD5A1 (11742802_a_at) / RFU TPSAB1 /// TPSB2 (11721975_s_at) / Fold change /veh TPSAB1 /// TPSB2 (11721975_s_at) / RFU GSTM3 (11746129_a_at) / Fold change /veh GSTM3 (11746129_a_at) / RFU IL23R (11737362_x_at) / Fold change /veh IL23R (11737362_x_at) / RFU TMEM51 (11727254_a_at) / Fold change /veh TMEM51 (11727254_a_at) / RFU PIWIL2 (11732686_x_at) / Fold change /veh PIWIL2 (11732686_x_at) / RFU ORM1 (11744905_x_at) / Fold change /veh ORM1 (11744905_x_at) / RFU CCDC152 (11743942_at) / Fold change /veh CCDC152 (11743942_at) / RFU ECM1 (11717891_a_at) / Fold change /veh ECM1 (11717891_a_at) / RFU IL23R (11748794_a_at) / Fold change /veh IL23R (11748794_a_at) / RFU TNFAIP8L3 (11732012_x_at) / Fold change /veh TNFAIP8L3 (11732012_x_at) / RFU MBOAT4 (11741988_at) / Fold change /veh MBOAT4 (11741988_at) / RFU 11764193_at / Fold change /veh 11764193_at / RFU TMEM53 (11763286_at) / Fold change /veh TMEM53 (11763286_at) / RFU MAGEB2 (11727129_at) / Fold change /veh MAGEB2 (11727129_at) / RFU TMEM200A (11744735_a_at) / Fold change /veh TMEM200A (11744735_a_at) / RFU CCDC152 (11751479_a_at) / Fold change /veh CCDC152 (11751479_a_at) / RFU FAM211A (11726209_a_at) / Fold change /veh FAM211A (11726209_a_at) / RFU RGS16 (11746705_a_at) / Fold change /veh RGS16 (11746705_a_at) / RFU VCAN (11755009_s_at) / Fold change /veh VCAN (11755009_s_at) / RFU RHOB (11743442_s_at) / Fold change /veh RHOB (11743442_s_at) / RFU RGS16 (11720943_a_at) / Fold change /veh RGS16 (11720943_a_at) / RFU RGS16 (11720944_at) / Fold change /veh RGS16 (11720944_at) / RFU, VPS4B / Fold change vs veh, VPS4B / RFU, CREB1 / Fold change vs veh, CREB1 / RFU, DNAJC13 / Fold change vs veh, DNAJC13 / RFU, GNAQ / Fold change vs veh, GNAQ / RFU, CDK5R1 / Fold change vs veh, CDK5R1 / RFU, ZRANB3 / Fold change vs veh, ZRANB3 / RFU, CUL4A / Fold change vs veh, CUL4A / RFU, CCNY / Fold change vs veh, CCNY / RFU, UFL1 / Fold change vs veh, UFL1 / RFU, COG3 / Fold change vs veh, COG3 / RFU, DIAPH2 / Fold change vs veh, DIAPH2 / RFU, SKA2 / Fold change vs veh, SKA2 / RFU, AFF3 / Fold change vs veh, AFF3 / RFU, LMF1 / Fold change vs veh, LMF1 / RFU, IPO11 / Fold change vs veh, IPO11 / RFU, DFFB / Fold change vs veh, DFFB / RFU, FOXP1 / Fold change vs veh, FOXP1 / RFU, CARD8 / Fold change vs veh, CARD8 / RFU, STRN3 / Fold change vs veh, STRN3 / RFU, ADK / Fold change vs veh, ADK / RFU, RASSF2 / Fold change vs veh, RASSF2 / RFU, WIPF1 / Fold change vs veh, WIPF1 / RFU, LARP1B / Fold change vs veh, LARP1B / RFU, RASA1 / Fold change vs veh, RASA1 / RFU, RB1 / Fold change vs veh, RB1 / RFU, PPFIA1 / Fold change vs veh, PPFIA1 / RFU, MAT2A / Fold change vs veh, MAT2A / RFU, CCT5 / Fold change vs veh, CCT5 / RFU, WDR92 / Fold change vs veh, WDR92 / RFU, CUX1 / Fold change vs veh, CUX1 / RFU, TTC7A / Fold change vs veh, TTC7A / RFU, TMEM135 / Fold change vs veh, TMEM135 / RFU, DEPTOR / Fold change vs veh, DEPTOR / RFU, CPM / Fold change vs veh, CPM / RFU, DNAJB6 / Fold change vs veh, DNAJB6 / RFU, CACNA2D3 / Fold change vs veh, CACNA2D3 / RFU, DTX4 / Fold change vs veh, DTX4 / RFU, TFCP2 / Fold change vs veh, TFCP2 / RFU, GMCL1 /// GMCL1P1 / Fold change vs veh, GMCL1 /// GMCL1P1 / RFU, AEBP2 / Fold change vs veh, AEBP2 / RFU, SNHG1 /// SNORD22 /// SNORD25 /// SNORD26 /// SNORD27 /// SNORD28 /// SNORD29 /// SNORD31 / Fold change vs veh, SNHG1 /// SNORD22 /// SNORD25 /// SNORD26 /// SNORD27 /// SNORD28 /// SNORD29 /// SNORD31 / Fold change (Aza/veh), C12orf56 (ProbeSet 11735607_a_at) / Fold change (ACY-1035/veh), C12orf56 (ProbeSet 11735607_a_at) / Fold change (Aza/veh), FGFR1OP (ProbeSet 11751329_s_at) / Fold change (ACY-1035/veh), FGFR1OP (ProbeSet 11751329_s_at) / Fold change (Aza/veh), VPS36 (ProbeSet 11739960_a_at) / Fold change (ACY-1035/veh), VPS36 (ProbeSet 11739960_a_at) / RFU SYPL1 (11715823_x_at) / Fold change /veh SYPL1 (11715823_x_at) / RFU IGFBP7 (11715501_s_at) / Fold change /veh IGFBP7 (11715501_s_at) / RFU REEP3 (11722064_at) / Fold change /veh REEP3 (11722064_at) / RFU IGLL1 (11728026_x_at) / Fold change /veh IGLL1 (11728026_x_at): dose or concentration left out as unconfirmed
Settings: ProbeSet 11723141_at; LIST B

`Nc1ccc(-c2cccs2)cc1NC(=O)c1ccc2c(c1)cc(C1CC1)n2CCN1CCOCC1` [ACY-1035] was tested, and the “Fold change vs veh, ZBTB11” value was 0.84.
